Data published in the NIST ThermoML archive (doi:10.1021/acs.jced.5b00348).
Where “and” joins values, the source holds several entries; their conditions need not be identical. Identical values can stand only once.

Details: for vapor or sublimation pressure: Closed cell (Static) method

FC(F)(F)/C=C/Cl [(E)-1-chloro-3,3,3-trifluoroprop-1-ene]
Details	mass density	speed of sound
379.78 K, 201.47 kPa, Gas	–	156.72 m/s
379.78 K, 201.53 kPa, Gas	–	156.72 m/s
379.78 K, 407.41 kPa, Gas	–	151.7 m/s
379.78 K, 407.46 kPa, Gas	–	151.7 m/s
379.78 K, 407.5 kPa, Gas	–	151.7 m/s
379.78 K, 407.74 kPa, Gas	–	151.69 m/s
379.78 K, 407.82 kPa, Gas	–	151.69 m/s
379.78 K, 407.85 kPa, Gas	–	151.69 m/s
379.78 K, 568.62 kPa, Gas	–	147.47 m/s
379.78 K, 796.76 kPa, Gas	–	140.89 m/s
379.78 K, 796.81 kPa, Gas	–	140.89 m/s
379.79 K, 407.85 kPa, Gas	–	151.69 m/s
379.79 K, 796.72 kPa, Gas	–	140.89 m/s
379.79 K, 959.4 kPa, Gas	–	135.64 m/s
379.79 K, 959.42 kPa, Gas	–	135.64 m/s
379.79 K, 959.44 kPa, Gas	–	135.64 m/s
380 K, 2975.2 kPa, Fluid (supercritical or subcritical phases)	1043.29 kg/m3	–
380 K, 3879.4 kPa, Liquid	1051.51 kg/m3	–
380.03 K, 547.9 kPa, Gas	25.032 kg/m3	–
380.03 K, 548.2 kPa, Gas	25.047 kg/m3	–
380.04 K, 428.4 kPa, Gas	19.095 kg/m3	–
383.99 K, 1844.2 kPa, Fluid (supercritical or subcritical phases)	1016.28 kg/m3	–
383.99 K, 4425 kPa, Fluid (supercritical or subcritical phases)	1042.8 kg/m3	–
385 K, 5748.6 kPa, Liquid	1050.89 kg/m3	–
389.93 K, 1284.7 kPa, Gas	67.575 kg/m3	–
390 K, 7622.7 kPa, Liquid	1050.32 kg/m3	–
390.03 K, 572 kPa, Gas	25.32 kg/m3	–
390.03 K, 572.2 kPa, Gas	25.33 kg/m3	–
390.04 K, 448.1 kPa, Gas	19.387 kg/m3	–
391.99 K, 2100.9 kPa, Fluid (supercritical or subcritical phases)	985.96 kg/m3	–
391.99 K, 4502.1 kPa, Fluid (supercritical or subcritical phases)	1015.42 kg/m3	–
395 K, 2051.4 kPa, Liquid	971.55 kg/m3	–
395 K, 4073.9 kPa, Liquid	999.34 kg/m3	–
395 K, 6005.8 kPa, Liquid	1020.09 kg/m3	–
395 K, 7979.4 kPa, Liquid	1037.8 kg/m3	–
395 K, 9495 kPa, Liquid	1049.74 kg/m3	–
399.68 K, 81.08 kPa, Gas	–	163.78 m/s
399.69 K, 81.05 kPa, Gas	–	163.76 m/s
399.69 K, 81.08 kPa, Gas	–	163.78 m/s
399.7 K, 81.05 kPa, Gas	–	163.76 m/s
399.7 K, 200.81 kPa, Gas	–	161.43 m/s
399.7 K, 200.89 kPa, Gas	–	161.43 m/s
399.71 K, 200.94 kPa, Gas	–	161.42 m/s
399.71 K, 201.02 kPa, Gas	–	161.42 m/s
399.72 K, 579.09 kPa, Gas	–	153.49 m/s
399.72 K, 579.15 kPa, Gas	–	153.49 m/s
399.72 K, 579.18 kPa, Gas	–	153.49 m/s
399.73 K, 1002.2 kPa, Gas	–	143.33 m/s
399.74 K, 1002.2 kPa, Gas	–	143.33 m/s
399.74 K, 1416.7 kPa, Gas	–	131.29 m/s and 131.29 m/s
399.75 K, 1416.7 kPa, Gas	–	131.29 m/s and 131.29 m/s
399.93 K, 1343.9 kPa, Gas	67.621 kg/m3	–
399.94 K, 1613 kPa, Gas	87.993 kg/m3	–
399.98 K, 2020.5 kPa, Fluid (supercritical or subcritical phases)	946.51 kg/m3	–
399.98 K, 2500.1 kPa, Fluid (supercritical or subcritical phases)	955.38 kg/m3	–
399.98 K, 4501.4 kPa, Fluid (supercritical or subcritical phases)	985.13 kg/m3	–
400.03 K, 468.2 kPa, Gas	19.679 kg/m3	–
400.03 K, 596.5 kPa, Gas	25.617 kg/m3 and 25.615 kg/m3	–
404.94 K, 3251 kPa, Fluid (supercritical or subcritical phases)	944.76 kg/m3	–
409.92 K, 1401.3 kPa, Gas	67.63 kg/m3	–
409.92 K, 1693.1 kPa, Gas	87.977 kg/m3	–
409.95 K, 2426 kPa, Fluid (supercritical or subcritical phases)	899.12 kg/m3	–
409.95 K, 4566.2 kPa, Fluid (supercritical or subcritical phases)	944.3 kg/m3	–
410.01 K, 488.6 kPa, Gas	19.972 kg/m3	–
410.01 K, 620.7 kPa, Gas	25.887 kg/m3 and 25.885 kg/m3	–
414.94 K, 3540.5 kPa, Fluid (supercritical or subcritical phases)	898.69 kg/m3	–
419.55 K, 79.93 kPa, Gas	–	167.87 m/s
419.56 K, 79.92 kPa, Gas	–	167.86 m/s
419.56 K, 79.93 kPa, Gas	–	167.87 m/s
419.56 K, 79.94 kPa, Gas	–	167.88 m/s
419.56 K, 79.95 kPa, Gas	–	167.88 m/s and 167.89 m/s

Liquid
Details	vapor or sublimation pressure [kPa]
380.03 K	1207.4
390.04 K	1480.7
400.04 K	1798.9
410.03 K	2166.7
415.03 K	2371
